# Experiments:
# Type in all cases: ADME, organism-based
# [1] = Drug level in rat plasma at 10 mg/kg, po; set-up: dose 10 mg/kg, route oral
# [2] = Clearance in rat; conditions: in vivo
# [3] = Half life in iv dosed rat; conditions: in vivo
# [4] = Volume of distribution at steady state in rat; conditions: in vivo, read-out: Vdss
# [5] = Drug level in rat brain at 10 mg/kg, po; set-up: dose 10 mg/kg, route oral
# [6] = Bioavailability in rat; conditions: in vivo
compound,measurement,setting,value
CNCc1cc(C(=O)N2CCN(C3CC3)CC2)ccc1Oc1ccc(Cl)c(Cl)c1,Cmax,[1],> 1000 nM
same,clearance,[2],10.2 mL/min/kg
same,half-life,[3],16.1 h
same,Vd,[4],13 L/kg
same,Cmax,[5],> 1000 nM
same,bioavailability,[6],93%
